Data taken from patent US20250129087A1, “SALT CRYSTALS” (INTRA-CELLULAR THERAPIES, INC., priority 2022, published 2025).

assay: Aqueous solubility of the salt crystals (shaking in water for 24 hours, LC analysis); format: physicochemical; conditions: appearance of the sample after shaking in water for 24 hours (Slurry or Clear)
Experimental: (§1) Samples are filtered and diluted (in a mixture of acetonitrile/water (1/1)) for LC analysis. Solubilities are calculated with the use of a calibration line. Furthermore, the pH values of the filtrated solutions are determined using pH indication paper.

Row | SMILES | Appearance
1 | CN1C(=O)c2c(nn(Cc3ccc(-c4cccc(F)n4)cc3)c2Nc2ccccc2)N2C1=N[C@@H]1CCC[C@@H]12.Nc1ccc(C(=O)O)c(O)c1 [Aminosalicylate Salt 1] | Slurry

assay: pH of the filtrated solutions (pH indication paper); format: physicochemical; conditions: pH of the filtrated solution
Experimental: as §1

Row | SMILES | pH
2 | CN1C(=O)c2c(nn(Cc3ccc(-c4cccc(F)n4)cc3)c2Nc2ccccc2)N2C1=N[C@@H]1CCC[C@@H]12.O=C(O)CCCCC(=O)O [Adipate Salt 1] | 4
3 | CN1C(=O)c2c(nn(Cc3ccc(-c4cccc(F)n4)cc3)c2Nc2ccccc2)N2C1=N[C@@H]1CCC[C@@H]12.CN1C(=O)c2c(nn(Cc3ccc(-c4cccc(F)n4)cc3)c2Nc2ccccc2)N2C1=N[C@@H]1CCC[C@@H]12.O=C(O)CCCCC(=O)O [Adipate Salt 2] | 4-5
4 | CN1C(=O)c2c(nn(Cc3ccc(-c4cccc(F)n4)cc3)c2Nc2ccccc2)N2C1=N[C@@H]1CCC[C@@H]12.O=C(O)CCCCC(=O)O [Adipate Salt 3] | 4-5
5 | CN1C(=O)c2c(nn(Cc3ccc(-c4cccc(F)n4)cc3)c2Nc2ccccc2)N2C1=N[C@@H]1CCC[C@@H]12.Nc1ccc(C(=O)O)c(O)c1 [Aminosalicylate Salt 1] | 5
6 | CN1C(=O)c2c(nn(Cc3ccc(-c4cccc(F)n4)cc3)c2Nc2ccccc2)N2C1=N[C@@H]1CCC[C@@H]12.O=C(O)c1ccccc1 [Benzoate Salt 1] | 5
7 | CN1C(=O)c2c(nn(Cc3ccc(-c4cccc(F)n4)cc3)c2Nc2ccccc2)N2C1=N[C@@H]1CCC[C@@H]12.O=S(=O)(O)c1ccccc1 [Besylate Salt 1] | 1
8 | CC1(C)C2CCC1(CS(=O)(=O)O)C(=O)C2.CN1C(=O)c2c(nn(Cc3ccc(-c4cccc(F)n4)cc3)c2Nc2ccccc2)N2C1=N[C@@H]1CCC[C@@H]12 [Camsylate Salt 1] | 1
9 | CC1(C)C2CCC1(CS(=O)(=O)O)C(=O)C2.CN1C(=O)c2c(nn(Cc3ccc(-c4cccc(F)n4)cc3)c2Nc2ccccc2)N2C1=N[C@@H]1CCC[C@@H]12 [Camsylate Salt 2] | 1
10 | CCCCCC(=O)O.CN1C(=O)c2c(nn(Cc3ccc(-c4cccc(F)n4)cc3)c2Nc2ccccc2)N2C1=N[C@@H]1CCC[C@@H]12 [Caproate Salt 1] | 5
11 | CCCCCCCC(=O)O.CN1C(=O)c2c(nn(Cc3ccc(-c4cccc(F)n4)cc3)c2Nc2ccccc2)N2C1=N[C@@H]1CCC[C@@H]12 [Caprylate Salt 1] | 5
12 | CN1C(=O)c2c(nn(Cc3ccc(-c4cccc(F)n4)cc3)c2Nc2ccccc2)N2C1=N[C@@H]1CCC[C@@H]12.O=C(O)C(Cl)Cl [Dichloroacetate Salt 1] | 4-5
13 | CN1C(=O)c2c(nn(Cc3ccc(-c4cccc(F)n4)cc3)c2Nc2ccccc2)N2C1=N[C@@H]1CCC[C@@H]12.O=S(=O)(O)CCS(=O)(=O)O [Edisylate Salt 1] | 1
14 | CCS(=O)(=O)O.CN1C(=O)c2c(nn(Cc3ccc(-c4cccc(F)n4)cc3)c2Nc2ccccc2)N2C1=N[C@@H]1CCC[C@@H]12 [Esylate Salt 1] | 5
15 | CN1C(=O)c2c(nn(Cc3ccc(-c4cccc(F)n4)cc3)c2Nc2ccccc2)N2C1=N[C@@H]1CCC[C@@H]12.CN1C(=O)c2c(nn(Cc3ccc(-c4cccc(F)n4)cc3)c2Nc2ccccc2)N2C1=N[C@@H]1CCC[C@@H]12.O=C(O)/C=C/C(=O)O [Fumarate Salt 1] | 2
16 | CN1C(=O)c2c(nn(Cc3ccc(-c4cccc(F)n4)cc3)c2Nc2ccccc2)N2C1=N[C@@H]1CCC[C@@H]12.O=C(O)[C@@H](O)[C@H](O)[C@H](O)[C@@H](O)C(=O)O [Galactarate Salt 1] | 5
17 | CN1C(=O)c2c(nn(Cc3ccc(-c4cccc(F)n4)cc3)c2Nc2ccccc2)N2C1=N[C@@H]1CCC[C@@H]12.Cl [HCl Salt 1] | 4
18 | CN1C(=O)c2c(nn(Cc3ccc(-c4cccc(F)n4)cc3)c2Nc2ccccc2)N2C1=N[C@@H]1CCC[C@@H]12.Cl [HCl Salt 2] | 4-5
19 | CN1C(=O)c2c(nn(Cc3ccc(-c4cccc(F)n4)cc3)c2Nc2ccccc2)N2C1=N[C@@H]1CCC[C@@H]12.Cl [HCl Salt 3] | 3
20 | CN1C(=O)c2c(nn(Cc3ccc(-c4cccc(F)n4)cc3)c2Nc2ccccc2)N2C1=N[C@@H]1CCC[C@@H]12.Cl [HCl Salt 4] | 4
21 | CN1C(=O)c2c(nn(Cc3ccc(-c4cccc(F)n4)cc3)c2Nc2ccccc2)N2C1=N[C@@H]1CCC[C@@H]12.O=C(O)c1ccncc1 [Isonicotinate Salt 1] | 5
22 | CC(O)C(=O)O.CN1C(=O)c2c(nn(Cc3ccc(-c4cccc(F)n4)cc3)c2Nc2ccccc2)N2C1=N[C@@H]1CCC[C@@H]12 [Lactate Salt 1] | 4-5
23 | CCCCCCCCCCCC(=O)O.CN1C(=O)c2c(nn(Cc3ccc(-c4cccc(F)n4)cc3)c2Nc2ccccc2)N2C1=N[C@@H]1CCC[C@@H]12 [Laurate Salt 1] | 5
24 | CN1C(=O)c2c(nn(Cc3ccc(-c4cccc(F)n4)cc3)c2Nc2ccccc2)N2C1=N[C@@H]1CCC[C@@H]12.O=C(O)C[C@H](O)C(=O)O [Malate Salt 1] | 4
25 | CN1C(=O)c2c(nn(Cc3ccc(-c4cccc(F)n4)cc3)c2Nc2ccccc2)N2C1=N[C@@H]1CCC[C@@H]12.O=C(O)C(O)c1ccccc1 [Mandelate Salt 1] | 2

Row | SMILES | pH
26 | CN1C(=O)c2c(nn(Cc3ccc(-c4cccc(F)n4)cc3)c2Nc2ccccc2)N2C1=N[C@@H]1CCC[C@@H]12.O=C(O)C(O)c1ccccc1 [Mandelate Salt 2] | 4
27 | CN1C(=O)c2c(nn(Cc3ccc(-c4cccc(F)n4)cc3)c2Nc2ccccc2)N2C1=N[C@@H]1CCC[C@@H]12.CS(=O)(=O)O [Mesylate Salt 1] | 5
28 | CN1C(=O)c2c(nn(Cc3ccc(-c4cccc(F)n4)cc3)c2Nc2ccccc2)N2C1=N[C@@H]1CCC[C@@H]12.O=S(=O)(O)c1cccc2c(S(=O)(=O)O)cccc12 [Napadisylate Salt 1] | 1
29 | CN1C(=O)c2c(nn(Cc3ccc(-c4cccc(F)n4)cc3)c2Nc2ccccc2)N2C1=N[C@@H]1CCC[C@@H]12.O=C(O)c1cccnc1 [Nicotinate Salt 1] | 5
30 | CN1C(=O)c2c(nn(Cc3ccc(-c4cccc(F)n4)cc3)c2Nc2ccccc2)N2C1=N[C@@H]1CCC[C@@H]12.O=C(O)c1cc(=O)[nH]c(=O)[nH]1.O=C(O)c1cc(=O)[nH]c(=O)[nH]1 [Orotate Salt 1] | 5
31 | CN1C(=O)c2c(nn(Cc3ccc(-c4cccc(F)n4)cc3)c2Nc2ccccc2)N2C1=N[C@@H]1CCC[C@@H]12.O=C(O)C(=O)O [Oxalate Salt 1] | 4
32 | CN1C(=O)c2c(nn(Cc3ccc(-c4cccc(F)n4)cc3)c2Nc2ccccc2)N2C1=N[C@@H]1CCC[C@@H]12.O=C(O)C(=O)O [Oxalate Salt 2] | 1
33 | CN1C(=O)c2c(nn(Cc3ccc(-c4cccc(F)n4)cc3)c2Nc2ccccc2)N2C1=N[C@@H]1CCC[C@@H]12.O=C(O)C(=O)O [Oxalate Salt 3] | 1
34 | CN1C(=O)c2c(nn(Cc3ccc(-c4cccc(F)n4)cc3)c2Nc2ccccc2)N2C1=N[C@@H]1CCC[C@@H]12.O=C(O)CCC(=O)C(=O)O [Oxo-glutarate Salt 1] | 3
35 | CCCCCCCCCCCCCCCC(=O)O.CN1C(=O)c2c(nn(Cc3ccc(-c4cccc(F)n4)cc3)c2Nc2ccccc2)N2C1=N[C@@H]1CCC[C@@H]12 [Palmitate Salt 1] | 5-6
36 | CN1C(=O)c2c(nn(Cc3ccc(-c4cccc(F)n4)cc3)c2Nc2ccccc2)N2C1=N[C@@H]1CCC[C@@H]12.O=P(O)(O)O [Phosphate Salt Control] | 5
37 | CCC(=O)O.CN1C(=O)c2c(nn(Cc3ccc(-c4cccc(F)n4)cc3)c2Nc2ccccc2)N2C1=N[C@@H]1CCC[C@@H]12 [Propionate Salt 1] | 5
38 | CN1C(=O)c2c(nn(Cc3ccc(-c4cccc(F)n4)cc3)c2Nc2ccccc2)N2C1=N[C@@H]1CCC[C@@H]12.O=C(O)c1ccccc1O [Salicylate Salt 1] | 5
39 | CN1C(=O)c2c(nn(Cc3ccc(-c4cccc(F)n4)cc3)c2Nc2ccccc2)N2C1=N[C@@H]1CCC[C@@H]12.O=C(O)c1ccccc1O [Salicylate Salt 2] | 4-5
40 | CN1C(=O)c2c(nn(Cc3ccc(-c4cccc(F)n4)cc3)c2Nc2ccccc2)N2C1=N[C@@H]1CCC[C@@H]12.O=C(O)CCC(=O)O [Succinate Salt 1] | 4
41 | CN1C(=O)c2c(nn(Cc3ccc(-c4cccc(F)n4)cc3)c2Nc2ccccc2)N2C1=N[C@@H]1CCC[C@@H]12.O=C(O)CCC(=O)O [Succinate Salt 2] | 4
42 | CN1C(=O)c2c(nn(Cc3ccc(-c4cccc(F)n4)cc3)c2Nc2ccccc2)N2C1=N[C@@H]1CCC[C@@H]12.O=S(=O)(O)O [Sulfate Salt 1] | 1
43 | CN1C(=O)c2c(nn(Cc3ccc(-c4cccc(F)n4)cc3)c2Nc2ccccc2)N2C1=N[C@@H]1CCC[C@@H]12.O=C(O)C(O)C(O)C(=O)O [Tartrate Salt 1] | 4-5
44 | CN1C(=O)c2c(nn(Cc3ccc(-c4cccc(F)n4)cc3)c2Nc2ccccc2)N2C1=N[C@@H]1CCC[C@@H]12.Cc1ccc(S(=O)(=O)O)cc1 [Tosylate Salt 1] | 1
45 | CN1C(=O)c2c(nn(Cc3ccc(-c4cccc(F)n4)cc3)c2Nc2ccccc2)N2C1=N[C@@H]1CCC[C@@H]12.Cc1ccc(S(=O)(=O)O)cc1 [Tosylate Salt 2] | 5
46 | CN1C(=O)c2c(nn(Cc3ccc(-c4cccc(F)n4)cc3)c2Nc2ccccc2)N2C1=N[C@@H]1CCC[C@@H]12.O=C(O)C(F)(F)F [Trifluoroacetate Salt 1] | 7
47 | CN1C(=O)c2c(nn(Cc3ccc(-c4cccc(F)n4)cc3)c2Nc2ccccc2)N2C1=N[C@@H]1CCC[C@@H]12.O=C(O)c1ccc2ccccc2c1O [Xinafoate Salt 1] | 7
48 | CN1C(=O)c2c(nn(Cc3ccc(-c4cccc(F)n4)cc3)c2Nc2ccccc2)N2C1=N[C@@H]1CCC[C@@H]12.O=C(O)c1ccc2ccccc2c1O [Xinafoate Salt 2] | 7
49 | CN1C(=O)c2c(nn(Cc3ccc(-c4cccc(F)n4)cc3)c2Nc2ccccc2)N2C1=N[C@@H]1CCC[C@@H]12.O=C(O)c1ccc2ccccc2c1O [Xinafoate Salt 3] | 7

same assay, conditions: pH of the filtrated solution, listed as 4-acetamido-benzoate Salt 1

Row | SMILES | pH
50 | CC(=O)Nc1ccc(C(=O)O)cc1.CN1C(=O)c2c(nn(Cc3ccc(-c4cccc(F)n4)cc3)c2Nc2ccccc2)N2C1=N[C@@H]1CCC[C@@H]12 [Acetamido Benzoate Salt 1] | 5

same assay, conditions: pH of the filtrated solution, listed as 4-acetamido-benzoate Salt 2

Row | SMILES | pH
51 | CC(=O)Nc1ccc(C(=O)O)cc1.CN1C(=O)c2c(nn(Cc3ccc(-c4cccc(F)n4)cc3)c2Nc2ccccc2)N2C1=N[C@@H]1CCC[C@@H]12 [Acetamido Benzoate Salt 2] | 4
